From the supplement of paper PMC11061612

What was measured:
[1] = test system: BHT-101 (Thyroid Gland Carcinoma); assay: Bliss excess, mean over the matrix (fraction); higher = more synergy
In short: (§1)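 After 24 hours at 37°C and 5% CO2 in 1536-well plates, cells in DMEM/F12 or RPMI plus 10% FBS received two-drug dose matrices for 72 hours. Viability came from CellTiter-Glo 2.0 luminescence and was scaled as inhibition, anchored at 0 by vehicle wells and at 1 by blank wells. Combination Emax is taken as the second-highest inhibition in the matrix, and Bliss excess as the observed combination effect less EA + EB − EA·EB, with EA and EB the single-agent effects.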

[2] = test system: C-33-A (Cervical Carcinoma); assay: as above
In short: as §1

ES6 (Ewing's Sarcoma) = assay: as above
In short: as §1

KALS-1 (Glioblastoma) = assay: as above
In short: as §1

[3] = test system: KP-4 (Pancreatic Carcinoma); assay: as above
In short: as §1

[4] = test system: LS-1034 (Colorectal Carcinoma); assay: as above
In short: as §1

[5] = test system: MOLT-13 (T-Lymphoblastic Leukemia); assay: as above
In short: as §1

[6] = test system: MONO-MAC-6 (Acute Myeloid Leukemia); assay: as above
In short: as §1

[7] = test system: NCI-H1963 (Small Cell Lung Carcinoma); assay: as above
In short: as §1

[8] = test system: NCI-H596 (Other Solid Carcinomas); assay: as above
In short: as §1

[9] = test system: OVCAR-3 (Ovarian Carcinoma); assay: as above
In short: as §1

[10] = test system: SAT (Head and Neck Carcinoma); assay: as above
In short: as §1

[11] = test system: SCC-4 (Oral Cavity Carcinoma); assay: as above
In short: as §1

[12] = test system: SNU-407 (Colorectal Carcinoma); assay: as above
In short: as §1

[13] = test system: SiHa (Cervical Carcinoma); assay: as above
In short: as §1

[14] = test system: T84 (Colorectal Carcinoma); assay: as above
In short: as §1

[15] = test system: TUR (Acute Myeloid Leukemia); assay: as above
In short: as §1

[16] = test system: IA-LM (Non-Small Cell Lung Carcinoma); assay: combination Emax (second highest fraction inhibited in the dose matrix, 72 h); higher = more inhibition; extreme values may be limits of the assay
In short: as §1

IST-MEL1 (Melanoma) = assay: as above
In short: as §1

[17] = test system: Raji (Burkitt's Lymphoma); assay: as above
In short: as §1
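Throughout, for Bliss excess, mean over the matrix: after 72 h of two-drug dosing.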

| Structure (SMILES) | Bliss excess [1] | Bliss excess [2] | Bliss excess (ES6 (Ewing's Sarcoma)) | Bliss excess (KALS-1 (Glioblastoma)) | Bliss excess [3] | Bliss excess [4] | Bliss excess [5] | Bliss excess [6] | Bliss excess [7] | Bliss excess [8] | Bliss excess [9] | Bliss excess [10] | Bliss excess [11] | Bliss excess [12] | Bliss excess [13] | Bliss excess [14] | Bliss excess [15] | combination Emax [16] | combination Emax (IST-MEL1 (Melanoma)) | combination Emax [17] |
| --- | --- | --- | --- | --- | --- | --- | --- | --- | --- | --- | --- | --- | --- | --- | --- | --- | --- | --- | --- | --- |
| COc1cccc(OCCCN)c1-c1cc(Nc2cnc(C#N)cn2)n[nH]1 [Prexasertib] + CCc1c2c(nc3ccc(O)cc13)-c1cc3c(c(=O)n1C2)COC(=O)[C@]3(O)CC [SN-38] (first compound max 1 µM, 7x7, partner max 0.3 µM) | 0.0077 | 0.0583 | 0.0156 | 0.0399 | 0.0454 | 0.0888 | -0.0112 | 0.0092 | 0.0138 | 0.0625 | 0.141 | -0.007 | 0.0021 | -0.0384 | 0.0357 | 0.0636 | 0.0107 | 0.867 | 0.889 | 0.983 |
| Cc1c2c(nn1C)CSCc1cc(n(C)n1)CSc1cc(c3ccccc3c1)OCCCc1c(C(=O)O)n(C)c3c-2c(Cl)ccc13 [AZD5991] + C[C@@H]1COCCN1C2=NC(=NC(=C2)C3(CC3)[S@](=N)(=O)C)C4=C5C=CNC5=NC=C4 [AZD6738] (first compound max 1 µM, 7x7, partner max 10 µM) | 0.0666 | -0.0501 | 0.0289 | 0.0165 | 0.0389 | -0.0346 | 0.0186 | -0.02 | 0.0858 | -0.0172 | 0.0623 | 0.0466 | -0.0003 | 0.0148 | 0.0122 | -0.0127 | 0.096 | 0.389 | 0.788 | 0.974 |
| Cc1cc2ncnn2cc1Nc1ncc2c(n1)n(C1CCOCC1)c(=O)n2C [AZD7648] + C=CCn1c(=O)c2cnc(Nc3ccc(N4CCN(C)CC4)cc3)nc2n1-c1cccc(C(C)(C)O)n1 [AZD1775] (first compound max 10 µM, partner max 1 µM) | 0.0005 | 0.0409 | -0.0031 | -0.0051 | 0.0217 | -0.0645 | 0.0144 | -0.0188 | 0.0345 | -0.0342 | -0.0355 | -0.0065 | -0.0714 | 0.0134 | 0.0306 | -0.0288 | 0.019 | 0.42 | 0.577 | 0.755 |
| NC1(C(=O)N[C@@H](CCO)c2ccc(Cl)cc2)CCN(c2ncnc3[nH]ccc23)CC1 [Capivasertib] + COc1nnc2ccc(N3CCC(c4ccc(OCCN5CCN(C)C(=O)[C@H]5C)cc4)CC3)nn12 [AZD5153] (first compound max 10 µM, 7x7, partner max 1 µM) | -0.0479 | 0.0321 | 0.0103 | -0.0749 | -0.0109 | 0.0201 | -0.0111 | -0.003 | 0.0036 | -0.0136 | 0.0189 | -0.0508 | 0.0043 | -0.0269 | 0.006 | -0.0695 | 0.0661 | 0.317 | 0.451 | 0.646 |
| COc1cccc(OCCCN)c1-c1cc(Nc2cnc(C#N)cn2)n[nH]1 [Prexasertib] + O=C(c1cc(Cc2n[nH]c(=O)c3ccccc23)ccc1F)N1CCN(C(=O)C2CC2)CC1 [Olaparib] (first compound max 1 µM, 7x7, partner max 10 µM) | -0.0528 | -0.0329 | 0.0253 | -0.115 | 0.0261 | -0.027 | 0.0013 | -0.0195 | -0.0327 | 0.0098 | 0.0265 | -0.0473 | -0.109 | -0.0041 | 0.0226 | -0.0119 | -0.0181 | 0.463 | 0.706 | 0.982 |
| CC1(C)CCC(CN2CCN(c3ccc(C(=O)NS(=O)(=O)c4ccc(NCC5CCOCC5)c([N+](=O)[O-])c4)c(Oc4cnc5[nH]ccc5c4)c3)CC2)=C(c2ccc(Cl)cc2)C1 [Venetoclax] + COc1cc(Nc2ncc3c(n2)-c2ccc(Cl)cc2C(c2c(F)cccc2OC)=NC3)ccc1C(=O)O [Alisertib] (first compound max 1 µM, 7x7, partner max 10 µM) | -0.0636 | -0.0225 | -0.0324 | -0.0642 | -0.0542 | -0.0252 | 0.0148 | 0.164 | 0.0303 | -0.0501 | -0.0234 | -0.0525 | 0.0421 | -0.0296 | -0.0669 | 0.0136 | 0.077 | 0.617 | 0.574 | 0.252 |
| Cc1cc2ncnn2cc1Nc1ncc2c(n1)n(C1CCOCC1)c(=O)n2C [AZD7648] + CCN(CCO)CCCOc1ccc2c(Nc3cc(CC(=O)Nc4cccc(F)c4)[nH]n3)ncnc2c1 [AZD2811] (first compound max 10 µM, 7x7, partner max 1 µM) | -0.0091 | 0.045 | -0.0042 | 0.0068 | -0.0425 | 0.0104 | -0.0152 | 0.0123 | -0.0146 | -0.0576 | 0.0046 | -0.0101 | -0.0526 | 0.023 | 0.0278 | 0.0161 | 0.0523 | 0.268 | 0.457 | 0.19 |
| CC1(C)CCC(CN2CCN(c3ccc(C(=O)NS(=O)(=O)c4ccc(NCC5CCOCC5)c([N+](=O)[O-])c4)c(Oc4cnc5[nH]ccc5c4)c3)CC2)=C(c2ccc(Cl)cc2)C1 [Venetoclax] + C=CCn1c(=O)c2cnc(Nc3ccc(N4CCN(C)CC4)cc3)nc2n1-c1cccc(C(C)(C)O)n1 [AZD1775] (first compound max 1 µM, partner max 1 µM) | -0.0626 | 0.0262 | 0.025 | 0.0815 | -0.0385 | -0.043 | 0.0723 | 0.0336 | 0.123 | -0.0783 | -0.067 | -0.0537 | 0.0032 | -0.0755 | -0.0527 | -0.0498 | -0.0071 | 0.36 | 0.799 | 0.725 |
| CN(CCO)CC[C@H](CSc1ccccc1)Nc1ccc(S(=O)(=O)NC(=O)c2ccc(N3CCC([C@@H](O)c4ccccc4-c4ccc(Cl)cc4)CC3)cc2)cc1S(=O)(=O)C(F)(F)F [AZD4320] + C[C@@H](Nc1cc(F)cc(F)c1)c1cc(C(=O)N(C)C)cc2c(=O)cc(N3CCOCC3)oc12 [AZD8186] (first compound max 1 µM, 7x7, partner max 3 µM) | -0.0192 | -0.0542 | 0.0029 | 0.0385 | 0.0087 | -0.0026 | 0.0093 | 0.0342 | 0.0841 | -0.0892 | -0.0135 | -0.0231 | -0.0437 | -0.0167 | -0.0165 | -0.0287 | 0.0019 | 0.617 | 0.405 | 0.354 |
| CCN(CCO)CCCOc1ccc2c(Nc3cc(CC(=O)Nc4cccc(F)c4)[nH]n3)ncnc2c1 [AZD2811] + O=C(c1cc(Cc2n[nH]c(=O)c3ccccc23)ccc1F)N1CCN(C(=O)C2CC2)CC1 [Olaparib] (first compound max 1 µM, 7x7, partner max 10 µM) | -0.0193 | -0.0108 | -0.0457 | 0.0144 | 0.0525 | -0.0253 | -0.0146 | 0.0056 | -0.0623 | -0.0372 | -0.0051 | -0.0469 | -0.0447 | -0.0292 | -0.0053 | -0.0067 | 0.0637 | 0.222 | 0.259 | 0.341 |
| CC1(C)CCC(CN2CCN(c3ccc(C(=O)NS(=O)(=O)c4ccc(NCC5CCOCC5)c([N+](=O)[O-])c4)c(Oc4cnc5[nH]ccc5c4)c3)CC2)=C(c2ccc(Cl)cc2)C1 [Venetoclax] + C[C@@H](Nc1cc(F)cc(F)c1)c1cc(C(=O)N(C)C)cc2c(=O)cc(N3CCOCC3)oc12 [AZD8186] (first compound max 1 µM, 7x7, partner max 3 µM) | 0.0031 | -0.0523 | -0.0661 | 0.0015 | -0.0205 | -0.0318 | 0.095 | 0.0531 | 0.21 | -0.0378 | -0.0062 | 0.0036 | -0.119 | -0.0471 | 0.0009 | -0.0284 | 0.0157 | 0.0865 | 0.336 | 0.172 |
| Cn1cnc2c(F)c(Nc3ccc(Br)cc3Cl)c(C(=O)NOCCO)cc21 [Selumetinib] + CCN(CCO)CCCOc1ccc2c(Nc3cc(CC(=O)Nc4cccc(F)c4)[nH]n3)ncnc2c1 [AZD2811] (first compound max 10 µM, 7x7, partner max 1 µM) | -0.0267 | 0.0162 | -0.0508 | -0.0093 | 0.0217 | -0.0556 | 0.0312 | 0.003 | 0.0053 | -0.035 | -0.0239 | -0.0151 | 0.0003 | -0.0522 | -0.0355 | -0.0479 | 0.0277 | 0.28 | 0.361 | 0.0936 |
| C[C@@H](c1ccc2nccn2c1)n1nnc2ncc(-c3cnn(C)c3)nc21 [Savolitinib] + Cc1c2c(nn1C)CSCc1cc(n(C)n1)CSc1cc(c3ccccc3c1)OCCCc1c(C(=O)O)n(C)c3c-2c(Cl)ccc13 [AZD5991] (first compound max 1 µM, 7x7, partner max 1 µM) | -0.0307 | -0.0084 | -0.0384 | -0.0411 | -0.0204 | -0.022 | -0.0368 | 0.0346 | -0.0134 | -0.0852 | -0.0341 | -0.0558 | -0.0295 | -0.0396 | -0.0335 | -0.0652 | 0.0026 | 0.268 | 0.104 | 0.751 |
| COc1cccc(OCCCN)c1-c1cc(Nc2cnc(C#N)cn2)n[nH]1 [Prexasertib] + CN(C)CCCOc1ccc(-c2ccc3ncc4c(c3c2)n(C2CCOCC2)c(=O)n4C)cn1 [AZD0156] (first compound max 1 µM, 7x7, partner max 1 µM) | 0.0275 | -0.0158 | 0.0091 | -0.0669 | 0 | -0.0471 | 0.0118 | 0.0031 | -0.0253 | -0.0909 | -0.0178 | -0.0158 | -0.0323 | -0.0146 | 0.0003 | 0.0016 | 0.013 | 0.42 | 0.75 | 0.959 |
